Test system: COVID-19
Settings: human, in vivo

With `O=C([O-])O.[Na+]` [bicarbonate of soda, sodium bicarbonate] the “second swab test (Covid-19)” value was “non-conclusive”, the “third swab test (Covid-19)” value was “negative” and the “symptoms after the first 2/3rds of a dose” value (po) was “no symptoms”.
